According to patent US12552798B2, “Substituted imidazolecarboxamide as Bruton's tyrosine kinase inhibitors” (Henan Zhiwei Biomedicine Co., Ltd., priority 2019, dated 2026):
Where two headings read alike, the source gives them in different places. Each block holds one compound with its values, some of them ahead of it.

Legend:
BTK = BTK (Homo sapiens (Human), UniProt Q06187); assay: BTK kinase inhibitory assay (ELISA); assay type: biochemical; settings: 3 μmol/L ATP
Method: (§1) BTK, EGFR, BMX, or ITK Inhibitory Assay Procedure for BTK, BMX, EGFR and ITK Inhibitory Assay:
(§2) Kinase inhibitory activities of compounds were evaluated using the Enzyme-linked immunosorbent assay (ELISA). The kinase enzyme of BTK, BMX, EGFR and ITK were purchased from Carna Bioscience (Kobe, Japan). A total of 10 ng/mL antiphosphotyrosine (PY713) antibody (abcam, Cambridge Science Park, UK) was precoated in 96-well ELISA plates. The kinase enzymes in each reaction well were set to BTK (101.25 ng/mL), BMX (90 ng/mL), EGFR (90 ng/mL) or ITK (120 ng/mL) and incubated with indicated compounds in 1× reaction buffer (50 mmol/L HEPES pH 7.4, 20 mmol/L MgCl2, 0.1 mmol/L MnCl2, 1 mmol/L DTT) containing 20 μmol/L (the final concentration of substrate in ITK reaction was 30 μmol/L) substrate (NH2-ETVYSEVRK-biotin) at 25° C. for 1 h. Then, a total of 3 μmol/L ATP was added and the reaction was continued for 2 hrs. The products of reaction were transferred into 96-well ELISA plates containing antibody and incubated at 25° C. for 30 min. After incubation, the wells were washed with PBS and then incubated with horseradish peroxidase […]-conjugated streptavidin. The wells were visualized using 3,3′,5,5′-tetramethylbenzidine (TMB), and chromogenic reaction was ended with 2 mol/L H2SO4, the absorbance was read with a multimode plate reader (PerkinElmer, USA) at 450 nm. IC50 values and curve fits were obtained using Prism (GraphPad Software).

BMX = BMX (Homo sapiens (Human), UniProt P51813); assay: BMX kinase inhibitory assay (ELISA); assay type: biochemical; settings: for Selectivity Ratio (BTK and BMX): BMX IC50 relative to BTK IC50; for IC50: ELISA, 3 μmol/L ATP
Chain of BMX (P51813 whole entry): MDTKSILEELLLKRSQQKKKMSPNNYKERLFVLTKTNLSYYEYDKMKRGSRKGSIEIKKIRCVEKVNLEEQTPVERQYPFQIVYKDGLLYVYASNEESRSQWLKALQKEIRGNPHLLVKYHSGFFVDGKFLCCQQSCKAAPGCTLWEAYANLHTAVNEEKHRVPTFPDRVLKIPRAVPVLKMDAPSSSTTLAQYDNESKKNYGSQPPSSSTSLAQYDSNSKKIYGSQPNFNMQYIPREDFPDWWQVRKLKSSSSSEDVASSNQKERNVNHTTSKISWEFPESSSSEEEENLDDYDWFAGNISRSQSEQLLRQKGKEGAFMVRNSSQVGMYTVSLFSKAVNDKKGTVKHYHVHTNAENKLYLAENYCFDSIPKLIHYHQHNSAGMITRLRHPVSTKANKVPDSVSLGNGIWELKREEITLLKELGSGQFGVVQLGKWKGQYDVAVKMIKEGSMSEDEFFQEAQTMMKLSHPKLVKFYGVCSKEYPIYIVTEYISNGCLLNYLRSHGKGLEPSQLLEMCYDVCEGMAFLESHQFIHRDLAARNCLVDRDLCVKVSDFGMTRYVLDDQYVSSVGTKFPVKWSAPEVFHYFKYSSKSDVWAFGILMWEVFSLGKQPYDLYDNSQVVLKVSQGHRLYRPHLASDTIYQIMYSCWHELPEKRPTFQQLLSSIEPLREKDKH
Method: as §1, §2

EGFR = EGFR (Homo sapiens (Human), UniProt P00533); assay: EGFR kinase inhibitory assay (ELISA); assay type: biochemical; settings: for Selectivity Ratio (BTK and EGFR): EGFR IC50 relative to BTK IC50; for IC50: ELISA, 3 μmol/L ATP
Chain of EGFR (P00533 25-1210): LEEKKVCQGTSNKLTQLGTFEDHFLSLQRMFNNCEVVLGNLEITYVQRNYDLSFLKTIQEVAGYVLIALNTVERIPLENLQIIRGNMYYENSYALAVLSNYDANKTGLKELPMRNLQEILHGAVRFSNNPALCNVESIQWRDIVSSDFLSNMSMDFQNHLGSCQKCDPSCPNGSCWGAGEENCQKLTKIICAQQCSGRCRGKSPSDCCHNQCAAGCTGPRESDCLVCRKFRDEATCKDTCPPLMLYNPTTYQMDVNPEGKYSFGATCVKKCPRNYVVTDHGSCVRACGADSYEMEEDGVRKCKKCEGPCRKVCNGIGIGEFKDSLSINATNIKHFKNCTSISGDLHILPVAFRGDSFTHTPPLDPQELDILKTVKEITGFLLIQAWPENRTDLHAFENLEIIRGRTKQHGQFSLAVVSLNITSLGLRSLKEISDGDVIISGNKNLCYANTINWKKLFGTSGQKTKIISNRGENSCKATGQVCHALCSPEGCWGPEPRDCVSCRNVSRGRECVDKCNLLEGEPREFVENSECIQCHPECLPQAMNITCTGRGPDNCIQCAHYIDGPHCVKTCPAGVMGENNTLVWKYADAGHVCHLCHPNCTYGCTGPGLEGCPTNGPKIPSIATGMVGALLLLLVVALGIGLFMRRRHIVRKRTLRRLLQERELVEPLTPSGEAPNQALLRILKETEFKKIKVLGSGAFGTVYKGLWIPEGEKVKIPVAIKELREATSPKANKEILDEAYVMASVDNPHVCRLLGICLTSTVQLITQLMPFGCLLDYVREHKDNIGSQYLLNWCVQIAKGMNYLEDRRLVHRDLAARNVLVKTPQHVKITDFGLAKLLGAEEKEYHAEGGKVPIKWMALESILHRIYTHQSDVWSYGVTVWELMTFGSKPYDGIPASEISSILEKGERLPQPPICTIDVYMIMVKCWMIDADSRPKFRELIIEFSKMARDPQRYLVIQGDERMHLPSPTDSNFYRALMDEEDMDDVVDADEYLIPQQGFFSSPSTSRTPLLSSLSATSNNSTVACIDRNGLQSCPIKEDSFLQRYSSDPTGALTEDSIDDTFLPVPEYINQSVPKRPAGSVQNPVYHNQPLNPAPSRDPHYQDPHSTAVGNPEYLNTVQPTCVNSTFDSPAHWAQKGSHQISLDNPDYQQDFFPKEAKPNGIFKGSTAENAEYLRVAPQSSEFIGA
Method: as §1, §2

ITK = ITK (Homo sapiens (Human), UniProt Q08881); assay: ITK kinase inhibitory assay (ELISA); assay type: biochemical; settings: for IC50: ELISA, 3 μmol/L ATP; for Selectivity Ratio (BTK and ITK): ITK IC50 relative to BTK IC50
Chain of ITK (Q08881 whole entry): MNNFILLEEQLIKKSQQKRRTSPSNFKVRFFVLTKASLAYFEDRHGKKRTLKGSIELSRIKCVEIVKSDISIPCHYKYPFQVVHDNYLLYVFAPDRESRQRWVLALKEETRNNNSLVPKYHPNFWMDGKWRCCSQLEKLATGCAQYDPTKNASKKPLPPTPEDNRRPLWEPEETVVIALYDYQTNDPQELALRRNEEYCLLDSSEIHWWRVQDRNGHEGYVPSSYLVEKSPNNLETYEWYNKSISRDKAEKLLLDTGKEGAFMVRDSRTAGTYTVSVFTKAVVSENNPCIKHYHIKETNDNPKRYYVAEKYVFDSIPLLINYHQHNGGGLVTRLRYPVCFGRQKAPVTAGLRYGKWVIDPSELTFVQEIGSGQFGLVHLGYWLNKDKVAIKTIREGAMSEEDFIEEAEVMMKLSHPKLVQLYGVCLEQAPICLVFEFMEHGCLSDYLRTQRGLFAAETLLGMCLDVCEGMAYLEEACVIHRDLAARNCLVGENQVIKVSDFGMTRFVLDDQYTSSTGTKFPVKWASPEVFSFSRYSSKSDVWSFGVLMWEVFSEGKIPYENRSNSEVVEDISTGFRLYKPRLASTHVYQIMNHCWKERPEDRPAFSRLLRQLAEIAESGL
Method: as §1, §2

TMD8 = assay: Cell antiproliferative activity assay (CellTiter-Glo), TMD8; assay type: cell-based; settings: read-out: Cell Growth IC50 (nM) TMD8
Method: (§3) Cell Antiproliferative Activity Assay
(§4) Cell antiproliferative activity was evaluated by the CellTiter-Glo (Promega, USA) assay. Make 1000× compounds solution in DMSO, add 1 μl 1000× compounds to […] growth medium to make 20× compounds. Dilute cell suspensions in growth medium to desired density and 95 μl were taken to 96-well plate. Add 5 μl 20× compounds into 96-well plate according to the plate map. Final DMSO concentration in each well was 0.1%. Then the cell was incubated at 37° C., 5% CO2 for 72 hs. Equilibrate the assay plate to room temperature before measurement. Add 20 μl of CellTiter-Glo© Reagent into each well. Mix contents for 2 minutes on an orbital shaker to induce cell lysis. Incubate at room temperature for 10 minutes to stabilize luminescent signal. Record luminescence using EnVision Multilabel Reader (PerkinElmer). Cell viability (CV %) was calculated relative to vehicle (DMSO) treated control wells using following formula: Cell viability (%)=(RLU compound−RLU blank)/(RLU control−RLU blank)*100%. The IC50 values were calculated using GraphPad Prism 6.0 software, fitting to a 4-parameter equation to generate concentration response curves. All assays were conducted with three parallel samples and three repetitions.

293T = assay: Cell antiproliferative activity assay (CellTiter-Glo), 293T; assay type: cell-based; settings: 72 hs, read-out: Cell Growth IC50 (nM) 293T
Method: as §3, §4

Chain of BTK (Q06187 whole entry): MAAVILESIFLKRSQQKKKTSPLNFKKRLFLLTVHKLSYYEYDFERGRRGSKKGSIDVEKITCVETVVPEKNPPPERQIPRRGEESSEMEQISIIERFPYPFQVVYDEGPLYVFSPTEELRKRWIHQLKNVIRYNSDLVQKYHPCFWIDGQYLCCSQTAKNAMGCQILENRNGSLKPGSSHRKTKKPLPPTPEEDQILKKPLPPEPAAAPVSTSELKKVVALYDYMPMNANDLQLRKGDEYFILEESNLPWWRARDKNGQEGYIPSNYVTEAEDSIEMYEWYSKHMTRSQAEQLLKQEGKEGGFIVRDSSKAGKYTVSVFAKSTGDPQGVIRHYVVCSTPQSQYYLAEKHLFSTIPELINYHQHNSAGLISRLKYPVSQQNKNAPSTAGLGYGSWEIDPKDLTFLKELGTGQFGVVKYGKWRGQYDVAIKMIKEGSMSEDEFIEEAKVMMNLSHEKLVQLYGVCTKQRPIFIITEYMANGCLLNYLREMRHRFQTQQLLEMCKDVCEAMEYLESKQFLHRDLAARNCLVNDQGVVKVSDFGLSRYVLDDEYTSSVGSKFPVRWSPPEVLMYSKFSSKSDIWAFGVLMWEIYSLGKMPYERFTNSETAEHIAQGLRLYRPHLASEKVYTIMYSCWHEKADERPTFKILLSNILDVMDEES

IC50 (BTK): 28.9 nM
Selectivity Ratio (BTK and BMX) (BMX): 1.86
IC50 (BMX): 53.9 nM
Selectivity Ratio (BTK and EGFR) (EGFR): 5.87
IC50 (EGFR): 170 nM
IC50 (ITK): > 30000 nM
Selectivity Ratio (BTK and ITK) (ITK): >1038
SMILES: C=CC(=O)N1CCC(C2CCNn3c2nc(-c2ccc(Oc4ccccc4)cc2)c3C(N)=O)CC1 (single isomer, unassigned) [1b (peak 2)]
IC50 (TMD8; TMD8, 72 hs): 102 nM
IC50 (293T): 5240 nM

IC50 (BTK): 4.6 nM
Selectivity Ratio (BTK and BMX) (BMX): 5.80
IC50 (BMX): 26.7 nM
Selectivity Ratio (BTK and EGFR) (EGFR): 19.48
IC50 (EGFR): 89.6 nM
IC50 (ITK): 13600 nM
Selectivity Ratio (BTK and ITK) (ITK): 2945
SMILES: C=CC(=O)N1CCC(C2CCNn3c2nc(-c2ccc(Oc4ccccc4)cc2)c3C(N)=O)CC1 (stereo not shown) [Example 1, 8-(1-acryloylpiperidin-4-yl)-2-(4-phenoxyphenyl)-5,6,7,8-tetrahydroimidazo[1,2-b]pyridazine-3-carboxamide]
IC50 (TMD8; Homo sapiens, TMD8, TMD8, 72 hs): 12.3 nM
IC50 (293T; Homo sapiens, HEK-293T): 573000 nM

IC50 (BTK): 76.4 nM
SMILES: CC#CC(=O)N1CCC(C2CCNn3c2nc(-c2ccc(Oc4ccccc4)cc2)c3C(N)=O)CC1 (stereo not shown) [Example 2, 8-[1-(1-Oxo-but-2-ynyl)-piperidin-4-yl]-2-(4-phenoxy-phenyl)-5,6,7,8-tetrahydro-imidazo[1,2-b]pyridazine-3-carboxamide]

IC50 (BTK): 285 nM
SMILES: N#C/C(=C\C1CC1)C(=O)N1CCC(C2CCNn3c2nc(-c2ccc(Oc4ccccc4)cc2)c3C(N)=O)CC1 (stereo not shown) [Example 8, 8-[1-(2-Cyano-3-cyclopropyl-acryloyl)-piperidin-4-yl]-2-(4-phenoxy-phenyl)-5,6,7,8-tetrahydro-imidazo[1,2-b]pyridazine-3-carboxamide]

IC50 (BTK): 122 nM
SMILES: CC#CC(=O)N1CCC(C2CCNn3c2nc(-c2ccc(Oc4ccc(F)cc4)cc2)c3C(N)=O)CC1 (stereo not shown) [Example 13, 8-(1-(but-2-ynoyl)piperidin-4-yl)-2-(4-(4-fluorophenoxy)phenyl)-5,6,7,8-tetrahydroimidazo[1,2-b]pyridazine-3-carboxamide]

IC50 (BTK): 778 nM
SMILES: CC#CC(=O)N1CCC(C2CCNn3c2nc(-c2ccc(Oc4ccc(OC)cc4)cc2)c3C(N)=O)CC1 (stereo not shown) [Example 16, 8-(1-(but-2-ynoyl)piperidin-4-yl)-2-(4-(4-methoxyphenoxy)phenyl)-5,6,7,8-tetrahydroimidazo[1,2-b]pyridazine-3-carboxamide]

IC50 (BTK): 37.4 nM
SMILES: C=CC(=O)N1CC(C2CCNn3c2nc(-c2ccc(Oc4ccccc4)cc2)c3C(N)=O)C1 (stereo not shown) [Example 18, 8-(1-acryloylazetidin-3-yl)-2-(4-phenoxyphenyl)-5,6,7,8-tetrahydroimidazo[1,2-b]pyridazine-3-carboxamide]

IC50 (BTK): 132 nM
SMILES: C=CC(=O)N1CCC(C2CCNn3c2nc(-c2ccc(Oc4ccccc4)cc2)c3C(N)=O)C1 (stereo not shown) [Example 21, 8-(1-acryloylpyrrolidin-3-yl)-2-(4-phenoxyphenyl)-5,6,7,8-tetrahydroimidazo[1,2-b]pyridazine-3-carboxamide]

IC50 (BTK): 185 nM
SMILES: CN(C)C/C=C/C(=O)N1CCC(C2CCNn3c2nc(-c2ccc(Oc4ccccc4)cc2)c3C(N)=O)CC1 (stereo not shown) [Example 25, (E)-8-(1-(4-(dimethylamino)but-2-enoyl)piperidin-4-yl)-2-(4-phenoxyphenyl)-5,6,7,8-tetrahydroimidazo[1,2-b]pyridazine-3-carboxamide]

IC50 (BTK): 8.4 nM
Selectivity Ratio (BTK and BMX) (BMX): 3.70
IC50 (BMX): 31.1 nM
Selectivity Ratio (BTK and EGFR) (EGFR): 9.75
IC50 (EGFR): 81.9 nM
IC50 (ITK): 4660 nM
Selectivity Ratio (BTK and ITK) (ITK): 555.2
SMILES: C=CC(=O)N1CCC(C2CCn3c2nc(-c2ccc(Oc4ccccc4)cc2)c3C(N)=O)CC1 (stereo not shown) [Example 26, 7-(1-acryloylpiperidin-4-yl)-2-(4-phenoxyphenyl)-6,7-dihydro-5H-pyrrolo[1,2-a]imidazole-3-carboxamide]

More lines, now with the values behind:

SMILES: C=CC(=O)N1CCC(C2CCNn3c2nc(-c2ccc(Oc4ccc(F)cc4)cc2)c3C(N)=O)CC1 (stereo not shown) [Example 12, 8-(1-acryloylpiperidin-4-yl)-2-(4-(4-fluorophenoxy)phenyl)-5,6,7,8-tetrahydroimidazo[1,2-b]pyridazine-3-carboxamide]
IC50 (BTK): 49.4 nM

SMILES: NC(=O)c1c(-c2ccc(Oc3ccc(F)cc3)cc2)nc2n1NCCC2C1CCN(C(=O)/C=C/C(F)(F)F)CC1 (stereo not shown) [Example 14, (E)-2-(4-(4-fluorophenoxy)phenyl)-8-(1-(4,4,4-trifluorobut-2-enoyl)piperidin-4-yl)-5,6,7,8-tetrahydroimidazo[1,2-b]pyridazine-3-carboxamide]
IC50 (BTK): 61.5 nM

SMILES: C=CC(=O)N1CCC(C2CCNn3c2nc(-c2ccc(Oc4ccc(OC)cc4)cc2)c3C(N)=O)CC1 (stereo not shown) [Example 15, 8-(1-acryloylpiperidin-4-yl)-2-(4-(4-methoxyphenoxy)phenyl)-5,6,7,8-tetrahydroimidazo[1,2-b]pyridazine-3-carboxamide]
IC50 (BTK): 42.6 nM

SMILES: COc1ccc(Oc2ccc(-c3nc4n(c3C(N)=O)NCCC4C3CCN(C(=O)/C=C/C(F)(F)F)CC3)cc2)cc1 (stereo not shown) [Example 17, (E)-2-(4-(4-methoxyphenoxy)phenyl)-8-(1-(4,4,4-trifluorobut-2-enoyl)piperidin-4-yl)-5,6,7,8-tetrahydroimidazo[1,2-b]pyridazine-3-carboxamide]
IC50 (BTK): 212 nM

SMILES: C=CC(=O)Nc1ccccc1C1CCNn2c1nc(-c1ccc(Oc3ccccc3)cc1)c2C(N)=O (stereo not shown) [Example 22, 8-(2-acrylamidophenyl)-2-(4-phenoxyphenyl)-5,6,7,8-tetrahydroimidazo[1,2-b]pyridazine-3-carboxamide]
IC50 (BTK): 5.4 nM
Selectivity Ratio (BTK and BMX) (BMX): 11.94
IC50 (BMX): 64.5 nM
Selectivity Ratio (BTK and EGFR) (EGFR): 3.05
IC50 (EGFR): 16.5 nM
IC50 (ITK): 27900 nM
Selectivity Ratio (BTK and ITK) (ITK): 5160.6

SMILES: C=CC(=O)N1CCC(C2CCNn3c2nc(-c2ccc(OC)cc2)c3C(N)=O)CC1 (stereo not shown) [Example 27, 8-(1-acryloylpiperidin-4-yl)-2-(4-methoxyphenyl)-5,6,7,8-tetrahydroimidazo[1,2-b]pyridazine-3-carboxamide]
IC50 (BTK): 242 nM

SMILES: C=CC(=O)N1CCC(C2CCn3c2nc(-c2ccc(Oc4ccccc4)c(OC)c2)c3C(N)=O)CC1 (stereo not shown) [Example 28, 7-(1-acryloylpiperidin-4-yl)-2-(3-methoxy-4-phenoxyphenyl)-6,7-dihydro-5H-pyrrolo[1,2-a]imidazole-3-carboxamide]
IC50 (BTK): 10.7 nM
Selectivity Ratio (BTK and BMX) (BMX): 7.51
IC50 (BMX): 80.3 nM
Selectivity Ratio (BTK and EGFR) (EGFR): 35.66
IC50 (EGFR): 382 nM
IC50 (ITK): > 30000 nM
Selectivity Ratio (BTK and ITK) (ITK): >2803.7

SMILES: C=CC(=O)N1CCC(C2CCNn3c2nc(-c2ccc(Oc4ccccc4)c(OC)c2)c3C(N)=O)CC1 (stereo not shown) [Example 29, 8-(1-acryloylpiperidin-4-yl)-2-(3-methoxy-4-phenoxyphenyl)-5,6,7,8-tetrahydroimidazo[1,2-b]pyridazine-3-carboxamide]
IC50 (BTK): 46.5 nM
